The target of assay [1] is GSK3α (Homo sapiens, UniProt P49840). As to the kind of experiment: GSK3α kinase assay (Caliper LabChip3000 mobility shift, fluoresceinated peptide substrate).
The subject of assay [2] is pTau. As to the kind of experiment: pTau assay (no method described). In kind it is cell-based.
Assay [3] deals with GSK3β (Homo sapiens, UniProt P49841). The assay is described as follows: GSK3β kinase assay (Caliper LabChip3000 mobility shift, fluoresceinated peptide substrate). It counts as biochemical.
Chain of GSK3β (P49841 whole entry, species assumed): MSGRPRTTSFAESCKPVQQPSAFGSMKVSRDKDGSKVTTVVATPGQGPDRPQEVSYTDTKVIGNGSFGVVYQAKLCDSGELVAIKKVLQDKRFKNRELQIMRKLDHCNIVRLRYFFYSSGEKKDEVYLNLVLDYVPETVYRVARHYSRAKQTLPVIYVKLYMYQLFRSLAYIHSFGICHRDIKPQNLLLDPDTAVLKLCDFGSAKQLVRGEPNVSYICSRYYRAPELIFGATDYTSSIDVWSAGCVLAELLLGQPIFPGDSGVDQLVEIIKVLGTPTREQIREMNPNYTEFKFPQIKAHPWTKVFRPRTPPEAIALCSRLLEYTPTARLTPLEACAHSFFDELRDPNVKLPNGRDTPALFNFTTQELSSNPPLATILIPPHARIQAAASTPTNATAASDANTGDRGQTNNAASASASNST
[4] abbreviates: 250 pM enzyme, 20 uM ATP, 1.5 uM peptide, 20 hours room temperature, first value of cell GSK3β/GSK3α, read-out: GSK3β (nM), IC50.

Read-outs that look alike come from different tables or passages of the source.

Chain of GSK3α (P49840 whole entry, species assumed): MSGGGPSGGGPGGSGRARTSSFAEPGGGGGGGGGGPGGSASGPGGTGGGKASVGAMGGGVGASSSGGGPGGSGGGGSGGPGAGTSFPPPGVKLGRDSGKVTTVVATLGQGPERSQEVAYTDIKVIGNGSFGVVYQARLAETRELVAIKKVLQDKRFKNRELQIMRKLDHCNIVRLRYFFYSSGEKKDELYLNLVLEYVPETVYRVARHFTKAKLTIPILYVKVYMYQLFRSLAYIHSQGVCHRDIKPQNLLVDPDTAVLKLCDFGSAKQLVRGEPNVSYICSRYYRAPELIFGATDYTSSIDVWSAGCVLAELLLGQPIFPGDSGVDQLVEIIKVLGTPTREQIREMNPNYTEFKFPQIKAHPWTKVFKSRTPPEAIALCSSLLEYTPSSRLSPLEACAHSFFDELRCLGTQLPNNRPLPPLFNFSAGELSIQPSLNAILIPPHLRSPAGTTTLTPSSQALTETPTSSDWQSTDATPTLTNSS

Turning to `O=C(Nc1cnc(F)cc1N1CCC(F)(F)CC1)c1ccnc(Nc2ccccc2)n1` [Example 177, N-(4-(4,4-Difluoropiperidin-1-yl)-6-fluoropyridin-3-yl)-2-(phenylamino)pyrimidine-4-carboxamide], the IC50 in assay [1] amounted to 0.41 nM; in assay [2] it was 60 nM; in assay [3] (setting [4]), 0.47 nM.
For `N#Cc1ccc(Nc2nccc(C(=O)Nc3cnccc3-c3ccc(F)cc3)n2)cc1` [Example 45, 2-((4-Cyanophenyl)amino)-N-(4-(4-fluorophenyl)pyridin-3-yl)pyrimidine-4-carboxamide], the half-inhibitory concentration (IC50) in assay [1] worked out at 0.29 nM; in assay [2], 10 nM; in assay [3] (setting [4]), 0.35 nM.
Take `O=C(Nc1cnc(F)cc1N1CCOCC1)c1ccnc(Nc2cccc(Cl)c2)n1` [Example 168]: the IC50 in assay [1] amounted to 0.2 nM; in assay [2] it was 21 nM; in assay [3] (setting [4]), 0.17 nM.
The like results for `O=C(Nc1cncc(-c2ccccc2F)c1)c1ccnc(Nc2ccc(OC(F)F)nc2)n1` [Example 105, 2-((6-(Difluoromethoxy)pyridin-3-yl)amino)-N-(5-(2-fluorophenyl)pyridin-3-yl)pyrimidine-4-carboxamide] were, in that order, 15 nM, 2100 nM and 31 nM.
As to `O=C(Nc1cnc(F)cc1N1CCOCC1)c1ccnc(Nc2ccc(Cl)cc2)n1` [Example 170], the values for the IC50 in assay [1], in assay [2] and in assay [3] (setting [4]) were 0.21 nM, 48 nM and 0.34 nM, respectively.
The like results for `COc1ccc(Nc2nccc(C(=O)Nc3cncnc3OCC(F)(F)F)n2)cc1` [Example 77, 2-((4-Methoxyphenyl)amino)-N-(4-(2,2,2-trifluoroethoxy)pyrimidin-5-yl)pyrimidine-4-carboxamide] were, in that order, 0.47 nM, 100 nM and 0.79 nM.
Take `CC(C)Nc1nccc(C(=O)Nc2cnccc2OCC(F)(F)F)n1` [Example 120, 2-(Isopropylamino)-N-(4-(2,2,2-trifluoroethoxy)pyridin-3-yl)pyrimidine-4-carboxamide]: the IC50 in assay [1] worked out at 1.4 nM; in assay [2] it was 26 nM; in assay [3] (setting [4]) it was 0.44 nM.
With `O=C(Nc1cncnc1OCC(F)(F)F)c1ccnc(Nc2ccc(Cl)cc2F)n1` [Example 71, 2-((4-Chloro-2-fluorophenyl)amino)-N-(4-(2,2,2-trifluoroethoxy)pyrimidin-5-yl)pyrimidine-4-carboxamide], the IC50 in assay [1] was 4.2 nM; in assay [2], 1000 nM; in assay [3] (setting [4]) it was 8 nM.
Turning to `N#Cc1ccc(Nc2nccc(C(=O)Nc3cnccc3OCC(F)(F)F)n2)cn1` [Example 82, 2-((6-Cyanopyridin-3-yl)amino)-N-(4-(2,2,2-trifluoroethoxy)pyridin-3-yl)pyrimidine-4-carboxamide], the figures for the 50% inhibitory concentration (IC50) in assay [1], in assay [2] and in assay [3] (setting [4]) were 0.09 nM, 2.8 nM and 0.18 nM, respectively.
Regarding `O=C(Nc1cnc(F)cc1N1CCC(F)(F)CC1)c1ccnc(Nc2ccc(Cl)cc2)n1` [Example 178, 2-((4-Chlorophenyl)amino)-N-(4-(4,4-difluoropiperidin-1-yl)-6-fluoropyridin-3-yl)pyrimidine-4-carboxamide], the IC50 in assay [1] was 0.57 nM; in assay [2] it was 69 nM; in assay [3] (setting [4]), 0.67 nM.
In the case of `Cc1ccc(Nc2nccc(C(=O)Nc3cnccc3-c3ccccc3)n2)cn1` [Example 89, 2-((6-Methylpyridin-3-yl)amino)-N-(4-phenylpyridin-3-yl)pyrimidine-4-carboxamide], the IC50 is 1.5 nM in assay [1], 73 nM in assay [2] and 3 nM in assay [3] (setting [4]).
Regarding `O=C(Nc1cnccc1OCC(F)(F)F)c1ccnc(Nc2ccc(F)cc2)n1` [Example 55, 2-((4-Fluorophenyl)amino)-N-(4-(2,2,2-trifluoroethoxy)pyridin-3-yl)pyrimidine-4-carboxamide], the half-maximal inhibitory concentration (IC50) was 0.16 nM in assay [1], 7.6 nM in assay [2] and 0.26 nM in assay [3] (setting [4]).
In the same order, the values of `O=C(Nc1cnccc1-c1ccc(F)cc1F)c1ccnc(Nc2ccc3ccccc3c2)n1` [Example 149, N-(4-(2,4-Difluorophenyl)pyridin-3-yl)-2-(naphthalen-2-ylamino)pyrimidine-4-carboxamide] are 0.36 nM, 110 nM and 0.65 nM.
As for `O=C(Nc1cnccc1-c1ccccc1)c1ccnc(Nc2ccc(Cl)cc2)n1` [Example 10, 2-((4-Chlorophenyl)amino)-N-(4-phenylpyridin-3-yl)pyrimidine-4-carboxamide], the IC50 came out at 0.28 nM in assay [1], 78 nM in assay [2] and 0.35 nM in assay [3] (setting [4]).
Turning to `CC(Nc1nccc(C(=O)Nc2cnccc2OCC(F)(F)F)n1)c1ccccc1` (stereo not drawn) [Example 138, 2-((1-Phenylethyl)amino)-N-(4-(2,2,2-trifluoroethoxy)pyridin-3-yl)pyrimidine-4-carboxamide], the values for the IC50 in assay [1], in assay [2] and in assay [3] (setting [4]) were 3.2 nM, 430 nM and 6.1 nM, respectively.
In the same order, the values of `O=C(Nc1cnccc1-c1ccccc1)c1ccnc(Nc2ccc(OC(F)F)cc2Cl)n1` [Example 29, 2-((2-Chloro-4-(difluoromethoxy)phenyl)amino)-N-(4-phenylpyridin-3-yl)pyrimidine-4-carboxamide] are 2.6 nM, 1400 nM and 4.6 nM.
The like results for `CC(C)OCCCNc1nccc(C(=O)Nc2cncnc2OCC(F)(F)F)n1` [Example 74, 2-((3-Isopropoxypropyl)amino)-N-(4-(2,2,2-trifluoroethoxy)pyrimidin-5-yl)pyrimidine-4-carboxamide] were, in that order, 4.5 nM, 890 nM and 5.9 nM.
In the same order, the values of `O=C(Nc1cnccc1CN1CCCC1)c1ccnc(Nc2ccc(OC(F)F)nc2)n1` [Example 81, 2-((6-(Difluoromethoxy)pyridin-3-yl)amino)-N-(4-(pyrrolidin-1-ylmethyl)pyridin-3-yl)pyrimidine-4-carboxamide] are 6.6 nM, 520 nM and 9.8 nM.
With `Cc1cc(Nc2nccc(C(=O)Nc3cnccc3-c3ccccc3)n2)ccc1F` [Example 17, 2-((4-Fluoro-3-methylphenyl)amino)-N-(4-phenylpyridin-3-yl)pyrimidine-4-carboxamide], the results for the IC50 in assay [1], in assay [2] and in assay [3] (setting [4]) were 0.47 nM, 60 nM and 0.64 nM, respectively.
In the same order, the values of `O=C(Nc1cncnc1OCC(F)(F)F)c1ccnc(Nc2cc(F)c(Cl)cc2F)n1` [Example 72, 2-((4-Chloro-2,5-difluorophenyl)amino)-N-(4-(2,2,2-trifluoroethoxy)pyrimidin-5-yl)pyrimidine-4-carboxamide] are 1.1 nM, 290 nM and 1.6 nM.
The like results for `Cn1nc(C2CC2)cc1Nc1nccc(C(=O)Nc2cnccc2-c2ccccc2)n1` [Example 97, 2-((3-Cyclopropyl-1-methyl-1H-pyrazol-5-yl)amino)-N-(4-phenylpyridin-3-yl)pyrimidine-4-carboxamide] were, in that order, 30 nM, 870 nM and 29 nM.
For `CN1CCC(Nc2nccc(C(=O)Nc3cnccc3OCC(F)(F)F)n2)CC1` [Example 142, 2-((1-Methylpiperidin-4-yl)amino)-N-(4-(2,2,2-trifluoroethoxy)pyridin-3-yl)pyrimidine-4-carboxamide], the IC50 came out at 12 nM in assay [1], 1000 nM in assay [2] and 14 nM in assay [3].

In general, IC50 refers to the concentration needed to halve the response being measured.

Values taken from patent US10752609B2, “GSK-3 inhibitors” (priority 2016, dated 2020).
